Source: PMC6273431, “The Structure–Antimicrobial Activity Relationships of a Promising Class of the Compounds Containing the N-Arylpiperazine Scaffold” (Molecules, 2016)
Like-named read-outs stand apart in the source and are kept apart here.

Assays:
[1] = test system: Enterococcus faecalis ATCC 29212; assay: antibacterial MIC, microtitration broth method; assay type: cell-based; details: 37 °C
Protocol: (§1) Prior to the testing, each strain was transferred into a nutrient agar (Oxoid Limited, Basingstoke, UK), which was enriched with 5% defibrinated bovine blood.
(§2) The MICs were determined by the microtitration broth method in the cation-adjusted Mueller-Hinton broth (Becton Dickinson, Oxford, UK) according to an international interdisciplinary Clinical Laboratory Standard Institute guidelines.
(§3) The checkerboard was inoculated by the bacterial inocula, which were prepared in a phosphate buffered saline solution with the pH = 7.2–7.3 to simulate physiological pH. The final concentration of each inoculum in the final volume of 100 μL in the wells was approximately 7.5 × 10^6 CFU/mL. Drug-free controls, sterility controls and the controls consisted of the broth with DMSO were included. The determination of the results was performed visually after 24 h of static incubation in the darkness at 37 °C in an aerobic atmosphere.
(§4) To ensure reproducibility, each antibacterial MIC assay was performed triplicate on separate occasions.

[2] = test system: Escherichia coli ATCC 25922; assay: antibacterial MIC, microtitration broth method; assay type: cell-based; details: 37 °C
Protocol: as §1, §2, §3, §4

[3] = test system: methicillin-resistant Staphylococcus aureus 63718; assay: antibacterial MIC, microtitration broth method; assay type: cell-based; details: MRSA, 37 °C
Protocol: as §1, §2, §3, §4

[4] = test system: Staphylococcus aureus ATCC 29213; assay: antibacterial MIC, microtitration broth method; assay type: cell-based; details: 37 °C
Protocol: as §1, §2, §3, §4

[5] = test system: Candida parapsilosis CCM 8260; assay: candidacidal MIC, microdilution method; assay type: cell-based; details: 48 h, 37 °C
Protocol: (§5) In order to provide a look into the potential usefulness of the derivatives 5a–l as the candidates for a development of anti-yeast (candidacidal) agents, they were in vitro tested against Candida albicans CCM 8261 (CA 8261), C. krusei CCM 8271 (CK 8271) and C. parapsilosis CCM 8260 (CP 8260). The yeasts were obtained from the Czech Collection of Microorganisms (Masaryk University, Faculty of Science, Brno, Czech Republic). They were grown and kept on Sabouraud agar (Oxoid Limited, Basingstoke, UK).
(§6) For the screening, the microdilution method according to the Antimicrobial Susceptibility Testing Protocols was applied. The inoculum was prepared from the cultures grown on Sabouraud agar. With the sterile solution of NaCl, the inoculum was prepared to the 0.5 McFarland units using the Densi-La-Meter densitometer (LIAP, Riga, Latvia) and diluted a thousand‑fold with the Roswell Park Memorial Institute (RPMI) 1640 medium (Sigma-Aldrich, Darmstadt, Germany). Prepared suspension was used for an inoculation of microtitre plates. Final concentration in wells ranged from 5.0 × 10^2 CFU/mL to 2.5 × 10^3 CFU/mL. […] For the determination of the MICs, the stock solutions of all the tested compounds were diluted in the microtitre checkerboard to the final concentration varying from 128 μg/mL to 0.125 μg/mL. Drug-free control, sterility control and the control consisted of a medium and DMSO alone were included. Inoculated microtitre plates were incubated for 48 h in the darkness at 37 °C in an aerobic atmosphere. The results were estimated against static light.
(§7) The MIC was defined as the lowest concentration of the tested compound at which no visible growth was observed. To ensure reproducibility of the results, each candidacidal MIC assay was performed triplicate on separate occasions. It was important to note that all the MICs from the in vitro antimicrobial screening were expressed in μg/mL units and were available in Tables S3 and S4 (Supplementary Materials).

[6] = test system: Candida albicans CCM 8261; assay: candidacidal MIC, microdilution method; assay type: cell-based; details: 48 h, 37 °C
Protocol: as §5, §6, §7

Candida krusei CCM 8271 = assay: candidacidal MIC, microdilution method; assay type: cell-based; details: 48 h, 37 °C
Protocol: as §5, §6, §7

M. smegmatis ATCC 700084 = assay: antimycobacterial MIC, broth dilution micromethod; assay type: cell-based; details: Mycolicibacterium smegmatis, ATCC700084, 72 h, 3 days at 37 °C
[7] = test system: Mycobacterium avium subsp. paratuberculosis CIT03; assay: antimycobacterial MIC, MB broth, alamarBlue; assay type: cell-based; details: 264 h, read-out: MIC MAP
Protocol: The Mycobacterium avium subsp. paratuberculosis CIT03 strain was grown in the Middlebrook (MB) broth, supplemented with the Oleic-Albumin-Dextrose-Catalase Supplement (OADC, Becton Dickinson, Oxford, UK) and the mycobactin J (2 μg/mL). The commercially available siderophore mycobactin J reduced the incubation period of M. avium subsp. paratuberculosis in a complex medium when compared to the medium containing the mycobactin P as a growth factor.
The identification of the isolate was performed using biochemical and molecular protocols. At a log phase growth, a culture sample (10 mL) was centrifuged at 15,000 rpm/20 min using a bench top centrifuge (Model CR 4-12, Jouan Inc., London, UK). Following removal of the supernatant, the pellet was washed in fresh Middlebrook 7H9GC broth and re-suspended in fresh supplemented MB broth (10 mL). The turbidity was adjusted to match the McFarland standard No. 1 containing approximately 3.0 × 10^8 Colony Forming Units (CFU) with the MB broth. Further 1:20 dilution of the culture was performed in the MB broth. The susceptibility of given mycobacterial species was investigated in a 96-well plate format. In those experiments, sterile deionised water (300 μL) was added to all outer-perimeter wells of the plates to minimize an evaporation of the medium in the test wells during the incubation process. Each evaluated compound (100 μL) was incubated with the mycobacterial species (100 μL). The dilutions of a particular compound were prepared in triplicate. For all inspected derivatives, final concentrations ranged from 1000 μg/mL to 60 μg/mL. All compounds were prepared in dimethyl sulfoxide (DMSO; Sigma-Aldrich, Irvine, UK) and subsequent dilutions were made in the supplemented MB broth. The plates were sealed with a parafilm and incubated at 37 °C for 11 days. Following the incubation, a 10% addition of a water‑soluble dye, the alamarBlue reagent (AbD Serotec, Kidlington, UK), was mixed into each well. Absorbance readings at 570 nm and 600 nm were taken, initially for background subtraction and after 24 h re-incubation. The subtraction is necessary for strongly coloured compounds, where the colour may interfere with the interpretation of any colour change. For non-interfering compounds, a blue colour in a well was interpreted as an absence of a growth and a pink colour was scored as a growth.
The minimum inhibitory concentration (MIC) was defined as the lowest concentration of the compound at which no visible bacterial growth was observed. In other words, the MIC was the lowest concentration that prevented a visual colour change from blue to pink. The MIC value has been routinely and widely used in bacterial assays and it has been a standard detection limit according to the Clinical and Laboratory Standards Institute. The clinically used antimycobacterial drugs INH and RIF were applied as the standards.

[8] = parameters: method as in PMID 16209439, PMID 16209439, doi:10.2478/s11696-006-0007-y; details: octan-1-ol/phosphate buffer (pH = 7.4); cited from earlier work
[9] = parameters: method as in PMID 16209439, PMID 16209439; details: potentiometric titration; cited from earlier work
M. kansasii DSM 44162 = assay: antimycobacterial MIC, broth dilution micromethod; assay type: cell-based; details: Mycobacterium kansasii, DSM44162, 168 h, 7 days at 37 °C
M. marinum CAMP 5644 = assay: antimycobacterial MIC, broth dilution micromethod; assay type: cell-based; details: Mycobacterium marinum, CAMP5644, 504 h, 21 days at 28 °C
[10] = Lodderomyces parapsilosis, CCM8260

Row | SMILES | MIC ([1]; ATCC29212, 24 h) | MIC ([1]; ATCC29212, Table S4, 24 h) | MIC ([2]; ATCC25922, 24 h) | MIC ([2]; ATCC25922, Table S4, 24 h) | MIC ([3]; 24 h) | MIC ([3]; Table S4, 24 h) | MIC ([4]; ATCC29213, 24 h) | MIC ([4]; ATCC29213, Table S4, 24 h) | MIC [5, 10] | MIC ([6]; Candida albicans, CCM8261) | MIC (Candida krusei CCM 8271; Pichia kudriavzevii, CCM8271) | further results
1 | CC1(C)S[C@@H]2[C@H](NC(=O)[C@H](N)c3ccccc3)C(=O)N2[C@H]1C(=O)O [AMP, ampicillin, reference compound] | > 45.8 µM | > 16 µg/mL | > 45.8 µM | > 16 µg/mL | > 45.8 µM | > 16 µg/mL | 5.72 µM | 2 µg/mL |  |  |  | 
2 | C[C@@H]1[C@H](O)[C@@H](C)/C=C/C=C/C=C/C=C/C=C/C=C/C=C/[C@H](O[C@@H]2O[C@H](C)[C@@H](O)[C@H](N)[C@@H]2O)C[C@@H]2O[C@](O)(C[C@@H](O)C[C@@H](O)[C@H](O)CC[C@@H](O)C[C@@H](O)CC(=O)O[C@H]1C)C[C@H](O)[C@H]2C(=O)O [Amph. B, amphotericin B, reference compound] |  |  |  |  |  |  |  |  | 1.08 µM | 0.54 µM | 0.54 µM | 
3 | Nc1nc(=O)[nH]cc1F [Compound 5-FC, 5-flucytosine, reference compound] |  |  |  |  |  |  |  |  |  |  |  | MIC [5]: 61.50 µM; MIC CP ([5]; Table S4): 8 µg/mL; MIC [6]: 7.69 µM; MIC CA ([6]; Table S4): 1 µg/mL; MIC (Candida krusei CCM 8271): 0.96 µM; MIC CK (Candida krusei CCM 8271; Table S4): 0.125 µg/mL
4 | COc1ccccc1NC(=O)OCC(O)CN1CCN(c2cccc(C(F)(F)F)c2)CC1 (centres unmarked) [Compound 5a] | > 523 µM | > 256 µg/mL | > 523 µM | > 256 µg/mL | > 523 µM | > 256 µg/mL | > 523 µM | > 256 µg/mL | > 261 µM | > 261 µM | > 261 µM | MIC (M. smegmatis ATCC 700084): 523 µM; MIC (M. smegmatis ATCC 700084; Table S3): 256 µg/mL; MIC ([7]; 37 °C, 11 days): 510 µM; MIC [7]: 250 µg/mL; log Pexp [8]: 3.57; pKa [9]: 5.83; MIC (M. kansasii DSM 44162): 131 µM; MIC (M. kansasii DSM 44162; Table S3): 64 µg/mL; MIC (M. marinum CAMP 5644): 131 µM; MIC (M. marinum CAMP 5644; Table S3): 64 µg/mL; MIC ([5]; Lodderomyces parapsilosis, CCM8260, Table S4): > 128 µg/mL; MIC ([6]; Candida albicans, CCM8261, Table S4): > 128 µg/mL; MIC (Candida krusei CCM 8271; Pichia kudriavzevii, CCM8271, Table S4): > 128 µg/mL
